This is an account of results in patent US20100087392A1 (Pierre Fabre Medicament, priority 2007, published 2010).

The nature of this data set: in vivo. Particulars: rat, po, 20 mg/kg. As for the experimental part:
Chromatographic Conditions: • Column: Synergi Fusion-RP 80, 2×50 mm, 4 microns
Mobile Phase: • Channel A: 13.3 mM ammonium formate/6.7 mM formic acid in water • Channel B: 6 mM ammonium formate/3 mM formic acid in water/acetonitrile (1/9, v/v)
• Plot of the curve/obtaining the plasma profile=plasma concentration as a function of the time post administration

Regarding `CC(C)Cc1ccc(C(C)C(=O)O)cc1` (stereo not drawn) [IBU alone, ibuprofen], the area under the curve (AUC) (usually the area under the concentration-time curve, a measure of exposure) amounted to 7190 ng·h/mL; the maximum concentration (Cmax) (usually the maximum level reached in the sampled fluid or tissue) came to 2280 ng/mL; the time of peak concentration (Tmax) – broadly, the time from dosing to the highest level – is 30 min.
